Experimental data reported in US8779158B2, “Trisubstituted pyrazoles as acetylcholine receptor modulators” (Janssen Pharmaceutica NV, priority 2008, dated 2014).

How the values were obtained:
hα7-wt nAChR = target: T1, hα7-wt nAChR (Homo sapiens, UniProt P36544); assay: Ca2+ flux imaging (FDSS) (Protocol B), potentiation of the choline response; format: cell-based; conditions: Ca2+ assay as described in D.1; for EC50: "<5" = activity did not reach a top plateau at maximal concentration; for Emax: read-out: % Efficacy
T1 construct: expressed in transfected cells
T1 sequence (P36544 23-502): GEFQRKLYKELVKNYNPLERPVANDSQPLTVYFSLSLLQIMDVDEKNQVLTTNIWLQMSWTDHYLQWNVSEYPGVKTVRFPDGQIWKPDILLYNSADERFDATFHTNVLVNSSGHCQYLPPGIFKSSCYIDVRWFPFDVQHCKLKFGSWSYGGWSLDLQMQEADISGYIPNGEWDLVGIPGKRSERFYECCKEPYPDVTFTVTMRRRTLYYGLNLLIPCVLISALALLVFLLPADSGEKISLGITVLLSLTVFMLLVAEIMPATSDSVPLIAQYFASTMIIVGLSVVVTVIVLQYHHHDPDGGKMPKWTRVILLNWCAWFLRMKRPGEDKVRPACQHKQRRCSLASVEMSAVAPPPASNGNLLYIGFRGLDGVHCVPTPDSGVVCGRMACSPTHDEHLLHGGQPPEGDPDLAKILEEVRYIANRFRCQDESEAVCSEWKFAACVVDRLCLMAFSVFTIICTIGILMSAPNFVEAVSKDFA
Summary of the method: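 Cells expressing hα7-wt nAChR, loaded with fluo-4AM (2 μM final) in HBSS with 10 mM HEPES, 5 mM CaCl2, 0.1% BSA and probenecid; compound (0.01–30 μM) added up to 10 min before 100 μM choline. Peak fluorescence potentiation relative to choline alone (100%); EC50 from sigmoidal curve.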

[1] = target: T2, hα7-wt nAChR-expressing GH4C1 cells (Homo sapiens, UniProt P36544); assay: Patch-clamp current recording (whole-cell voltage clamp), potentiation of the choline current and PAM type; format: cell-based; parameters: key: Type 0 compounds minimally enhance the effect size of the current elicited by 1 mM choline.; Type 1 compounds enhance the effect size of the current elicited by 1 mM choline but minimally alter the kinetics of the receptor.; Type 2 compounds enhance the effect size of the current elicited by 1 mM choline while reducing the rate and/or the extent of desensitization.; Type 3 compounds enhance the effect size of the current elicited by 1 mM choline. When tested at higher concentrations up to 10 μM they completely inhibit desensitization, in particular a 1 mM choline application of 250 milliseconds.; Type 4 compounds allow for an initial desensitization of the receptor followed by a re-opening of the receptor during agonist application; conditions: 1 mM choline
T2 construct: expressed in transfected cells
T2 sequence (P36544 23-502): as above
Description: The compounds of the present invention are classified as type 1-4, based on qualitative kinetic properties, as determined by whole-cell voltage-clamp recordings. This classification is based on the effect of an α7 PAM compound, as described hereinbefore, on the signal elicited by an agonist application. In particular, said agonist is choline at a concentration of 1 mM. In a preferred experimental setting, said α7 PAM compound and choline are simultaneously applied to the cell, as described hereinafter. Desensitization is defined as the closure of the receptor upon activation during the application of the agonist in whole-cell voltage-clamp electrophysiology measurements seen as the reduction of the […] current after initial activation by the agonist.
The definition of the PAM types 1-4 is described hereinafter: • Type 0 compounds minimally enhance the effect size of the current elicited by 1 mM choline. • Type 1 compounds enhance the effect size of the current elicited by 1 mM choline but minimally alter the kinetics of the receptor. In particular, the rate and the extent of desensitization, elicited by the agonist, is not affected. The compound-modulated response to 1 mM choline, therefore, is a close to linear scaling of the 1 mM choline response in absence of the α7 PAM compound. • Type 2 compounds enhance the effect size of the current elicited by 1 mM choline while reducing the rate and/or the extent of desensitization. • Type 3 compounds enhance the effect size of the current elicited by 1 mM choline. […] At low-potency concentrations of the α7 PAM compound, the agonist-induced activation, which is followed by desensitization, can still be separated from the compound-induced re-opening as an initial inward current-maximum. At higher potency concentrations of the α7 PAM compound, the re-opening occurs faster than the closure due to desensitization so that the initial current-maximum disappears.
A compound was considered to have interesting PAM-like activity when the potentiation of the peak current was at least 200% compared to the control choline response (=100%). Such compounds are classified as belonging to a particular PAM type in the Experimental Part. Compounds not meeting the condition are not classified as belonging to a particular PAM-type.
The compounds also have a potentiating effect on the response to choline when measured by whole-cell patch clamp electrophysiology in GH4C1 cells stably over-expressing the human wild-type α7 receptor.
Patch-Clamp Current Recording
Patch-clamp recording from mammalian cells has provided a powerful means of assessing the function of membrane-bound proteins thought to be subunits of ligand-gated ion channels. Activation of such proteins by endogenous or exogenous ligands cause opening of a pore associated with the receptor through which ions flow down their electrochemical gradient. In the case of the hα7-wt nAChR-expressing GH4C1 recombinant cell line the preferential permeability to calcium of this receptor means that calcium flows into the cell upon activation by ACh, choline and other nicotinic ligands giving rise to a calcium current. Since this receptor rapidly desensitizes in the presence of agonist it is important an application system is used which is capable of very rapid switching of solutions (<100 ms) to prevent partial or full desensitisation of receptor responses coincident with the time of agonist application. Consequently, a second convenient technique to assess the enhancement of nicotinic efficacy is patch-clamp recording from hα7-wt nAChR-expressing GH4C1 cells coupled with a rapid-application system.
• The external recording solution consisted of 152 mM NaCl, 5 mM KCl, 1 mM MgCl2, 1 mM Calcium, 10 mM HEPES; pH 7.3. […]

EC50 (hα7-wt nAChR) | Emax (hα7-wt nAChR) | SMILES | PAM type [1]
912 nM |  | Cc1cnccc1-c1cc(Nc2ccc3c(c2)OC(F)(F)O3)nn1CCC(=O)N(C)C [compound 90] | 4
550 nM | 749% | CCNC(=O)Cn1nc(Nc2ccc(F)c(F)c2)cc1-c1cc(C)nc(C)c1 [compound 151] | 2
871 nM |  | CCNC(=O)Cn1nc(Nc2ccc3c(c2)OC(F)(F)O3)cc1-c1ccncc1 [compound 87] | 3
251 nM |  | CNC(=O)Cn1nc(Nc2cc(F)c(F)c(F)c2)cc1-c1ccc2c(c1)OCCO2 [compound 74] | 2
977 nM |  | CNC(=O)Cn1nc(Nc2cccc(Cl)c2)cc1-c1cc(C)nc(C)c1 [compound 54] | 2
417 nM | 737% | CCNC(=O)Cn1nc(Nc2ccc3c(c2)OC(F)(F)O3)cc1-c1cc(C)nc(C)c1 [compound 153] | 2
813 nM | 632% | CNC(=O)Cn1nc(Nc2ccc3c(c2)OC(F)(F)O3)cc1-c1cc(C)nc(C)c1 [compound 130] | 2
1860 nM |  | CNC(=O)Cn1nc(Nc2ccc3c(c2)OC(F)(F)O3)cc1-c1ccnc(C)c1 [compound 92] | 2
4270 nM |  | CNC(=O)Cn1nc(Nc2cccc(C(F)(F)F)c2)cc1-c1ccnc(C)c1 [compound 32] | 2
1000 nM |  | CCNC(=O)Cn1nc(Nc2ccc3c(c2)OC(F)(F)O3)cc1-c1ccnc(C)c1 [compound 93] | 2
617 nM |  | CC[C@H](O)Cn1nc(Nc2ccc(F)c(F)c2)cc1-c1cc(C)nc(C)c1 [compound 59] | 1
363 nM | 509% | Cc1cc(-c2cc(Nc3ccc4c(c3)OC(F)(F)O4)nn2CC(=O)NC2CCC2)cc(C)n1 [compound 158] | 1
575 nM |  | CCNC(=O)Cn1nc(Nc2ccc(F)c(C(F)(F)F)c2)cc1-c1ccnc(C)c1 [compound 38] | 2
1000 nM |  | CCNC(=O)Cn1nc(Nc2cc(OC)cc(C(F)(F)F)c2)cc1-c1cc(C)nc(C)c1 [compound 140] | 2
2630 nM |  | CCNC(=O)Cn1nc(Nc2ccc3c(c2)OC(F)(F)O3)cc1-c1ccncc1C [compound 91] | 2
363 nM | 738% | Cc1cc(-c2cc(Nc3cccc(OC(F)(F)F)c3)nn2CCC(=O)N(C)C)cc(C)n1 [compound 165] | 1
363 nM | 503% | Cc1cc(-c2cc(Nc3ccc4c(c3)OC(F)(F)O4)nn2CCC(=O)N(C)C)cc(C)n1 [compound 157] | 2

Second part, the molecule before the results:

SMILES | EC50 (hα7-wt nAChR) | Emax (hα7-wt nAChR) | PAM type [1]
Cc1cc(-c2cc(Nc3ccc(F)c(F)c3F)nn2CC(=O)NCC2CC2)ccn1 [compound 164] | 309 nM | 482% | 2
CC[C@H](O)Cn1nc(Nc2cc(F)cc(F)c2)cc1-c1ccnc(COC)c1 [compound 71] | 1380 nM | 700% | 1
CC[C@H](O)Cn1nc(Nc2ccc(F)c(F)c2)cc1-c1ccnc(COC)c1 [compound 6, (alphaS)-3-[(3,4-difluorophenyl)amino]-alpha-ethyl-5-[2-(methoxymethyl)-4-pyridinyl]-1H-pyrazole-1-ethanol] | 1150 nM |  | 2
COc1cc(Nc2cc(-c3ccnc(C)c3)n(CCC(=O)N(C)C)n2)cc(C(F)(F)F)c1 [compound 143] | 575 nM |  | 4
Cc1ccc(-c2cc(Nc3ccc(F)c(C(F)(F)F)c3)nn2CCC(=O)N(C)C)cn1 [compound 28] | 776 nM |  | 4
Cc1cc(-c2cc(Nc3cc(F)c(F)c(F)c3)nn2CCC(=O)N(C)C)ccn1 [compound 142] | 617 nM | 816% | 2
COc1cc(Cl)cc(Nc2cc(-c3ccnc(C)c3)n(CCC(=O)N(C)C)n2)c1 [compound 126] | 912 nM |  | 2
COCc1cc(-c2cc(Nc3ccc(F)c(F)c3)nn2CCC(=O)N(C)C)ccn1 [compound 70] | 1350 nM |  | 3
CCNc1cc(-c2cc(Nc3ccc(F)c(F)c3)nn2C[C@@H](O)CC)ccn1 [compound 65] | 575 nM | 1000% | 2
Cc1cnccc1-c1cc(Nc2cc(F)cc(C(F)(F)F)c2)nn1CCC(=O)N(C)C [compound 9, 3-[[3-fluoro-5-(trifluoromethyl)phenyl]amino]-N,N-dimethyl-5-(3-methyl-4-pyridinyl)-1H-pyrazole-1-propanamide] | 1020 nM |  | 4
CCNC(=O)Cn1nc(Nc2ccc(F)c(F)c2F)cc1-c1ccnc(C)c1 [compound 125] | 933 nM | 972% | 2
Cc1cc(-c2cc(Nc3cc(F)c(F)c(F)c3)nn2CC(=O)NCC2CC2)ccn1 [compound 168] | 263 nM | 778% | 2
CCNc1cc(-c2cc(Nc3ccc(F)c(C(F)(F)F)c3)nn2C[C@@H](O)CC)cc(C)n1 [compound 68] | 724 nM |  | 0
Cc1ccnc(-c2cc(Nc3ccc(F)c(F)c3)nn2CCC(=O)N(C)C)c1 [compound 22] | 2450 nM |  | 2
Cc1cc(-c2cc(Nc3ccc(F)c(F)c3)nn2CCC(=O)N(C)C)ccn1 [compound 40] | 1000 nM |  | 2
COc1cccc(-c2cc(Nc3ccc(F)c(F)c3)nn2CCC(=O)N(C)C)c1 [compound 103] | 245 nM |  | 2
Cc1cc(-c2cc(Nc3cccc(Cl)c3)nn2CC(=O)NC2CC2)ccn1 [compound 123] | 1000 nM |  | 2
COc1cc(Nc2cc(-c3ccnc(C)c3)n(CC(=O)NCC3CC3)n2)cc(C(F)(F)F)c1 [compound 131] | 813 nM |  | 2
CC[C@H](O)Cn1nc(Nc2cccc(Cl)c2)cc1-c1ccnc(C)c1 [compound 185, (alphaS)-3-[(3-chlorophenyl)amino]-alpha-ethyl-5-[2-methyl-4-pyridinyl]-1H-pyrazole-1-ethanol] | 1580 nM |  | 1
CN(C)C(=O)CCn1nc(Nc2ccc(F)c(F)c2)cc1-c1ccncc1 [compound 21] | 1230 nM |  | 3
COCc1cc(-c2cc(Nc3cccc(Cl)c3)nn2CCC(=O)N(C)C)ccn1 [compound 149] | 437 nM |  | 4
CC[C@H](O)Cn1nc(Nc2ccc(F)c(F)c2)cc1-c1ccnc(C)c1 [compound 45] | 1230 nM | 800% | 1
CCNC(=O)Cn1nc(Nc2cccc(Cl)c2F)cc1-c1ccnc(C)c1 [compound 137] | 631 nM | 946% | 2
CCNC(=O)Cn1nc(Nc2cccc(C(F)(F)F)c2)cc1-c1ccnc(C)c1 [compound 36] | 1910 nM |  | 2
CC[C@H](O)Cn1nc(Nc2ccc(F)c(C(F)(F)F)c2)cc1-c1ccnc(C)c1 [compound 46] | 891 nM |  | 0
